Ki data for eleven compounds are collected here from ChEMBL document CHEMBL1144270, “Carbonic anhydrase inhibitors. Interaction of isozymes I, II, IV, V, and IX with carboxylates” (Bioorg Med Chem Lett, 2005).

Usually Ki stands for a dissociation constant, usually derived from enzyme kinetics or from competition with a known ligand. Lower therefore signals higher affinity.

Sequence of Carbonic anhydrase 5A, mitochondrial (P35218 whole entry): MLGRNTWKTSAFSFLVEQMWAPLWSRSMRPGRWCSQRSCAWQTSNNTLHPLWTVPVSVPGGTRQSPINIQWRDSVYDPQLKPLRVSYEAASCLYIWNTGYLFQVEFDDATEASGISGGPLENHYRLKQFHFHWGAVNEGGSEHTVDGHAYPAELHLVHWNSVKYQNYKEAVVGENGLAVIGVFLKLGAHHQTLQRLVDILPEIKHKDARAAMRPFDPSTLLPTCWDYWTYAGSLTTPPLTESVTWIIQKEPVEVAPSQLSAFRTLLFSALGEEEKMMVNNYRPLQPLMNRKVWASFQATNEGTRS

The first experiment concerns the target Carbonic anhydrase 9 (Homo sapiens, UniProt Q16790). As to the kind of experiment: Binding affinity against human cytosolic Carbonic anhydrase IX.
As to `O=C(O)c1c(F)c(F)cc(F)c1F`, the Ki turned out to be 770 µM.

As for `O=C([O-])CC(=O)[O-].[Na+].[Na+]` [DISODIUM MALONATE], the Ki was determined as 1270 µM.

On to `O=C(O)C[C@H](O)C(=O)O` [E350], for which the Ki worked out at 7420 µM.

For `CC(=O)C(=O)[O-].[Na+]` [PYRUVATE SODIUM], affinity was put at a Ki of 1120 µM.

As to `CC(=O)[O-].[Na+]` [SODIUM ACETATE], the Ki was more than 150000 µM.

For `O=C([O-])c1ccccc1.[Na+]` [SODIUM BENZOATE], the Ki is more than 150000 µM.

`O=C([O-])CC(O)(CC(=O)[O-])C(=O)[O-].[Na+].[Na+].[Na+]` [SODIUM CITRATE] displayed an inhibition constant (Ki) of 4930 µM.

The compound `CC(O)C(=O)[O-].[Na+]` (configuration not stated) [SODIUM LACTATE] showed a Ki of more than 150000 µM.

In turn, `O=C([O-])C(=O)[O-].[Na+].[Na+]` [SODIUM OXALATE] had a Ki of 3280 µM.

A further experiment concerns the target Carbonic anhydrase 5A, mitochondrial (Homo sapiens, UniProt P35218). As to the kind of experiment: Binding affinity against human cytosolic Carbonic anhydrase V.
Regarding `O=C(O)c1c(F)c(F)cc(F)c1F`, the Ki was determined as 1620 µM.

In the case of `O=C([O-])CC(=O)[O-].[Na+].[Na+]` [DISODIUM MALONATE], affinity was put at a Ki of 6000 µM.

With `O=C(O)C[C@H](O)C(=O)O` [E350], the affinity corresponds to a Ki of 2490 µM.

`CC(=O)C(=O)[O-].[Na+]` [PYRUVATE SODIUM] registered a Ki of 5500 µM.

`CC(=O)[O-].[Na+]` [SODIUM ACETATE] displayed an inhibitory constant (Ki) of 25900 µM.

`O=C([O-])c1ccccc1.[Na+]` [SODIUM BENZOATE] showed a Ki of 7010 µM.

Take `O=C([O-])O.[Na+]` [SODIUM BICARBONATE]: the Ki was found to be 82000 µM.

`O=C([O-])CC(O)(CC(=O)[O-])C(=O)[O-].[Na+].[Na+].[Na+]` [SODIUM CITRATE] registered a Ki of 1670 µM.

`O=C[O-].[Na+]` [SODIUM FORMATE] registered a Ki of 9970 µM.

Compound `CC(O)C(=O)[O-].[Na+]` (configuration not stated) [SODIUM LACTATE] gave a Ki of 3370 µM.

`O=C([O-])C(=O)[O-].[Na+].[Na+]` [SODIUM OXALATE] showed a Ki of 2230 µM.

The target in a further experiment is Carbonic anhydrase 2 (Homo sapiens, UniProt P00918). As to the kind of experiment: Binding affinity against human cytosolic Carbonic anhydrase II.
For the compound `O=C(O)c1c(F)c(F)cc(F)c1F`, the affinity, expressed as Ki, was 6 µM.

Consider `O=C([O-])CC(=O)[O-].[Na+].[Na+]` [DISODIUM MALONATE], for which the Ki is 1620 µM.

Compound `O=C(O)C[C@H](O)C(=O)O` [E350] gave a Ki of 1870 µM.

In the case of `CC(=O)C(=O)[O-].[Na+]` [PYRUVATE SODIUM], the affinity, expressed as Ki, was 2110 µM.

With `CC(=O)[O-].[Na+]` [SODIUM ACETATE], the Ki was 130 µM.

The compound `O=C([O-])c1ccccc1.[Na+]` [SODIUM BENZOATE] displayed a Ki of 30 µM.

As for `O=C([O-])CC(O)(CC(=O)[O-])C(=O)[O-].[Na+].[Na+].[Na+]` [SODIUM CITRATE], the Ki was 2160 µM.

The compound `CC(O)C(=O)[O-].[Na+]` (configuration not stated) [SODIUM LACTATE] came in with a Ki of 3220 µM.

Regarding `O=C([O-])C(=O)[O-].[Na+].[Na+]` [SODIUM OXALATE], the Ki came out at 990 µM.

In another experiment the target is Carbonic anhydrase 1 (Homo sapiens, UniProt P00915). Briefly: Binding affinity against human cytosolic Carbonic anhydrase I (A = activator).
Sequence of Carbonic anhydrase 1 (P00915 whole entry): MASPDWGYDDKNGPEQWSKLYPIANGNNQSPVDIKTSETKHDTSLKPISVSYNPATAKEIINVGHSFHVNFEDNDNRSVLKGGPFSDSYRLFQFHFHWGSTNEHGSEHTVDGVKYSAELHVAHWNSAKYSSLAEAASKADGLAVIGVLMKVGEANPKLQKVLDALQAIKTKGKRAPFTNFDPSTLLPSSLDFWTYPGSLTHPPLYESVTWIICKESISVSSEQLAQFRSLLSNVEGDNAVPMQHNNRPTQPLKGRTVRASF
`O=C([O-])CC(=O)[O-].[Na+].[Na+]` [DISODIUM MALONATE]: the Ki result was “Activator”.

On to `O=C(O)C[C@H](O)C(=O)O` [E350], for which the Ki result is “Activator”.

With `CC(=O)C(=O)[O-].[Na+]` [PYRUVATE SODIUM], the Ki result was “Activator”.

In the case of `CC(=O)[O-].[Na+]` [SODIUM ACETATE], the Ki result is listed as “Activator”.

Regarding `O=C([O-])c1ccccc1.[Na+]` [SODIUM BENZOATE], the Ki result is on record as “Activator”.

For the compound `O=C([O-])CC(O)(CC(=O)[O-])C(=O)[O-].[Na+].[Na+].[Na+]` [SODIUM CITRATE], the Ki result is given as “Activator”.

`O=C[O-].[Na+]` [SODIUM FORMATE]: the Ki result was “Activator”.

As for `CC(O)C(=O)[O-].[Na+]` (configuration not stated) [SODIUM LACTATE], the Ki entry is recorded as “Activator”.

Regarding `O=C([O-])C(=O)[O-].[Na+].[Na+]` [SODIUM OXALATE], the Ki result is listed as “Activator”.

A further experiment deals with Carbonic anhydrase 4 (Homo sapiens, UniProt P22748). As to the kind of experiment: Binding affinity against human cytosolic Carbonic anhydrase IV.
Sequence of Carbonic anhydrase 4 (P22748 whole entry): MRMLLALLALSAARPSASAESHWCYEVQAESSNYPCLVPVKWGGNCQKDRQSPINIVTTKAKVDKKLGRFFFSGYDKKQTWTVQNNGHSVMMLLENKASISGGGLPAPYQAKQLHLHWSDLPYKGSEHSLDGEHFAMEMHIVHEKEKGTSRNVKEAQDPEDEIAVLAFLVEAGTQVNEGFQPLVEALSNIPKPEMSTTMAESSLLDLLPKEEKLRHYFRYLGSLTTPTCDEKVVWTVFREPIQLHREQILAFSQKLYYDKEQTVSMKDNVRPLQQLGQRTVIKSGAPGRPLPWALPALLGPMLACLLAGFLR
As for `O=C(O)c1c(F)c(F)cc(F)c1F`, the Ki worked out at 74.5 µM.

Consider `O=C([O-])CC(=O)[O-].[Na+].[Na+]` [DISODIUM MALONATE], for which the Ki amounted to 2.8 µM.

Turning to `O=C(O)C[C@H](O)C(=O)O` [E350], the Ki is 53.7 µM.

With `CC(=O)C(=O)[O-].[Na+]` [PYRUVATE SODIUM], the affinity, expressed as Ki, was 14.5 µM.

In the case of `CC(=O)[O-].[Na+]` [SODIUM ACETATE], the affinity corresponds to a Ki of 550 µM.

`O=C([O-])c1ccccc1.[Na+]` [SODIUM BENZOATE] gave a Ki of 74.7 µM.

Compound `O=C([O-])CC(O)(CC(=O)[O-])C(=O)[O-].[Na+].[Na+].[Na+]` [SODIUM CITRATE] came in with a Ki of 0.099 µM.

The compound `CC(O)C(=O)[O-].[Na+]` (configuration not stated) [SODIUM LACTATE] had a Ki of 1530 µM.

As to `O=C([O-])C(=O)[O-].[Na+].[Na+]` [SODIUM OXALATE], the Ki is 0.099 µM.
